What was measured:
[1] = test system: control cell lines (HACAT, HEK293T, CRL-7250, NIH-3T3); test: qHTS cell viability, control cell lines as a group (mean AUC, Control.avg); format: cell-based; settings: MIPE library, mean AUC of control cell lines, sheet S2E
[2] = test system: VP-MCC cell lines (WAGA, MKL-1, MKL-2); test: qHTS cell viability, VP-MCC cell lines as a group (mean AUC, VP.MCC.avg); format: cell-based, human; settings: MIPE library, sheet S2E
HACAT cells = test: qHTS cell viability (CellTiter-Glo, 72 h; primary screen), control cell line; format: cell-based, human
NIH-3T3 cells = test: as above; format: cell-based, mouse
[3] = test system: six MCC cell lines and four control cell lines; test: qHTS cell viability, all 10 cell lines screened; format: cell-based; settings: MIPE library, Control AUC minus MCC AUC (therapeutic window), sheet S2E
MKL-1 cells (VP-MCC) = test: qHTS cell viability (CellTiter-Glo, 72 h; primary and follow-up small molecule screen); format: cell-based, human
UISO cells (VN-MCC) = test: as above; format: cell-based, human
MKL-2 cells (VP-MCC) = test: as above; format: cell-based, human
[4] = test system: MCC cell lines (WAGA, MKL-1, MKL-2, MCC13, MCC26, UISO); test: qHTS cell viability, all six MCC cell lines as a group (mean AUC, MCC.avg); format: cell-based, human; settings: MIPE library, mean AUC of six MCC cell lines, sheet S2E
MCC13 cells (VN-MCC) = test: qHTS cell viability (CellTiter-Glo, 72 h; primary and follow-up small molecule screen); format: cell-based, human
WAGA cells (VP-MCC) = test: as above; format: cell-based, human
CRL-7250 cells = test: qHTS cell viability (CellTiter-Glo, 72 h; primary screen), control cell line; format: cell-based
MCC26 cells (VN-MCC) = test: qHTS cell viability (CellTiter-Glo, 72 h; primary and follow-up small molecule screen); format: cell-based, human
HEK293T cells = test: qHTS cell viability (CellTiter-Glo, 72 h; primary screen), control cell line; format: cell-based, human
[5] = test system: VN-MCC cell lines (MCC13, MCC26, UISO); test: qHTS cell viability, VN-MCC cell lines as a group (mean AUC, VN.MCC.avg); format: cell-based, human; settings: MIPE library, sheet S2E
[6] = MIPE library, 11-point DRC, control cell line, sheet S2E
[7] = MIPE library, 11-point DRC, sheet S2E

SMILES: CC(=O)O[C@]1(C(C)=O)CC[C@H]2[C@@H]3C=C(C)C4=CC(=O)CC[C@]4(C)[C@H]3CC[C@@]21C [Megestrol acetate]
- Control_Avg_AUC [1]: 463.906
- Control-VP-MCC ([2]; Control AUC minus VP-MCC AUC (therapeutic window)): 88.658
- VP-MCC_Avg_AUC ([2]; mean AUC of VP-MCC cell lines): 375.248
- HACAT_AUC (HACAT cells; [6]): 434.851
- HACAT_AUC (HACAT cells; area under the dose-response curve, HACAT control cells, AUC<450 = reduced viability): 455.962
- NIH3T3_AUC (NIH-3T3 cells; [6]): 472.047
- NIH3T3_AUC (NIH-3T3 cells; area under the dose-response curve, NIH3T3 control cells, AUC<450 = reduced viability): 478.678
- Control-MCC [3]: 39.5225
- MKL1_AUC (MKL-1 cells (VP-MCC); [7]): 380.312
- MKL1_AUC (MKL-1 cells (VP-MCC); area under the dose-response curve, MKL-1 cells, AUC<450 = reduced viability): 437.052
- Area under the dose-response curve (AUC) MKL-1 Replicate 1 (MKL-1 cells (VP-MCC); follow-up screen, MKL-1, replicate 1): 482.4
- Area under the dose-response curve (AUC) MKL-1 Replicate 2 (MKL-1 cells (VP-MCC); follow-up screen, MKL-1, replicate 2): 475.6
- Area under the dose-response curve (AUC) MKL-1 Replicate 3 (MKL-1 cells (VP-MCC); follow-up screen, MKL-1, replicate 3): 473.0
- UISO_AUC (UISO cells (VN-MCC); [7]): 463.276
- UISO_AUC (UISO cells (VN-MCC); area under the dose-response curve, UISO cells, AUC<450 = reduced viability): 481.624
- Area under the dose-response curve (AUC) UISO Replicate 1 (UISO cells (VN-MCC); follow-up screen, UISO, replicate 1): 487.9
- Area under the dose-response curve (AUC) UISO Replicate 2 (UISO cells (VN-MCC); follow-up screen, UISO, replicate 2): 467.2
- Area under the dose-response curve (AUC) UISO Replicate 3 (UISO cells (VN-MCC); follow-up screen, UISO, replicate 3): 452.8
- MKL2_AUC (MKL-2 cells (VP-MCC); [7]): 396.638
- MKL2_AUC (MKL-2 cells (VP-MCC); area under the dose-response curve, MKL-2 cells, AUC<450 = reduced viability): 447.482
- Area under the dose-response curve (AUC) MKL-2 Replicate 1 (MKL-2 cells (VP-MCC); follow-up screen, MKL-2, replicate 1): 460.3
- Area under the dose-response curve (AUC) MKL-2 Replicate 2 (MKL-2 cells (VP-MCC); follow-up screen, MKL-2, replicate 2): 492.7
- Area under the dose-response curve (AUC) MKL-2 Replicate 3 (MKL-2 cells (VP-MCC); follow-up screen, MKL-2, replicate 3): 490.0
- MCC_Avg_AUC [4]: 424.384
- MCC13_AUC (MCC13 cells (VN-MCC); [7]): 479.341
- MCC13_AUC (MCC13 cells (VN-MCC); area under the dose-response curve, MCC13 cells, AUC<450 = reduced viability): 479.661
- Area under the dose-response curve (AUC) MCC13 Replicate 1 (MCC13 cells (VN-MCC); follow-up screen, MCC13, replicate 1): 522.1
- Area under the dose-response curve (AUC) MCC13 Replicate 2 (MCC13 cells (VN-MCC); follow-up screen, MCC13, replicate 2): 498.9
- Area under the dose-response curve (AUC) MCC13 Replicate 3 (MCC13 cells (VN-MCC); follow-up screen, MCC13, replicate 3): 453.4
- WAGA_AUC (WAGA cells (VP-MCC); [7]): 348.793
- WAGA_AUC (WAGA cells (VP-MCC); area under the dose-response curve, WAGA cells, AUC<450 = reduced viability): 442.363
- Area under the dose-response curve (AUC) WAGA Replicate 1 (WAGA cells (VP-MCC); follow-up screen, WAGA, replicate 1): 536.2
- Area under the dose-response curve (AUC) WAGA Replicate 2 (WAGA cells (VP-MCC); follow-up screen, WAGA, replicate 2): 483.3
- Area under the dose-response curve (AUC) WAGA Replicate 3 (WAGA cells (VP-MCC); follow-up screen, WAGA, replicate 3): 478.6
- CRL7250_AUC (CRL-7250 cells; [6]): 475.825
- CRL7250_AUC (CRL-7250 cells; area under the dose-response curve, CRL7250 control cells, AUC<450 = reduced viability): 475.174
- MCC26_AUC (MCC26 cells (VN-MCC); [7]): 477.94
- MCC26_AUC (MCC26 cells (VN-MCC); area under the dose-response curve, MCC26 cells, AUC<450 = reduced viability): 486.411
- Area under the dose-response curve (AUC) MCC26 Replicate 1 (MCC26 cells (VN-MCC); follow-up screen, MCC26, replicate 1): 464.5
- Area under the dose-response curve (AUC) MCC26 Replicate 2 (MCC26 cells (VN-MCC); follow-up screen, MCC26, replicate 2): 445.6
- Area under the dose-response curve (AUC) MCC26 Replicate 3 (MCC26 cells (VN-MCC); follow-up screen, MCC26, replicate 3): 484.7
- HEK293T_AUC (HEK293T cells; [6]): 472.9
- HEK293T_AUC (HEK293T cells; area under the dose-response curve, HEK293T control cells, AUC<450 = reduced viability): 457.911
- Control-VN-MCC ([5]; Control AUC minus VN-MCC AUC (therapeutic window)): -9.613
- VN-MCC_Avg_AUC ([5]; mean AUC of VN-MCC cell lines): 473.519
